# Patent US20210023065A1, “AMPHIPHILIC THIOL COMPOUNDS AND USES THEREOF” (THE REGENTS OF THE UNIVERSITY OF CALIFORNIA, priority 2018, published 2021)
# What was measured:
# HeLa cells = experiment: MS detection of AMD product 4 in HeLa cell lipid extracts; type: cell-based; details: 200 μM 1 with 400 μM TCEP, 20 min
# Experimental: HeLa cells were grown to confluency in two 6 cm plates. Once confluent, media was removed and cells washed 1× with HBSS. Stock solutions were prepared as before. From these stocks, solutions of 200 μM 1 (with 400 μM TCEP) or 400 μM TCEP were prepared in OptiMEM media. To each plate was added 3 mL OptiMEM+400 μM TCEP or OptiMEM+200 μM 1 (with 400 μM TCEP). Cells were incubated at 37° C. for 20 min and then media removed and 3 mL of HBSS added to each plate. Cells were detached using a cell scraper, pelleted by centrifugation at 1,000 rcf for 5 min and the pellet subjected to a lipid extraction using the Bligh and Dyer method.^3 Lipid extracts were analyzed for the presence of the AMD product palmityl-N-L-Cys-Oct (4) using reverse phase chromatography on an HP 1100 LC station to a Thermo LCQdeca-MS running in ESI Positive Ion Mode. MS/MS analysis was performed on the [M+H]^+ peak of 4 (m/z 471) then selected reaction monitoring on the fragmentation peak (m/z 130) (FIG. 9).
# EGFP-HRas = target: T1, EGFP-HRas (Homo sapiens, UniProt P01112); experiment: Live-cell imaging of EGFP-HRas localization in HeLa cells; type: cell-based
# T1 construct: host or cells: HeLa
# Experimental: Imaging was performed on an Axio Observer Z1 inverted microscope (Carl Zeiss Microscopy Gmb, Germany) with Yokogawa CSU-X1 spinning disk confocal unit using a 63×, 1.4 NA oil immersion or 20×, 0.8 NA objective to an ORCA-Flash4.0 V2 Digital CMOS camera (Hamamatsu, Japan). For live cell imaging, an incubation chamber with temperature and CO2 controllers (World Precision Instruments) was utilized. Fluorophores were excited with s diode laser (488 nm; 30 mW). Images were acquired using Zen Blue software (Carl Zeiss) and processed using Image J.^1
# HeLa cells were plated at 40,000 cells/well in an 8-well Lab-Tek chamber slide (ThermoFisher) and allowed to adhere overnight. Cells were transfected with mEGFP-HRas or mEGFP-KRas4b using Lipofectamine 2000 (ThermoFisher) according to the manufacturer's protocol. 50 mM stocks of compounds 1 and 2 were prepared by dissolving the solid compound in DMSO containing 100 mM tris(2-S 3 carboxyethyl)phosphine hydrochloride (TCEP) as a preservative. From these stocks, a solution of 200 μM [1 or 2] (with 400 μM TCEP), or 400 μM TCEP was prepared in OptiMEM media. Before imaging, cells were exchanged into OptiMEM media. The diluted solutions were added to the indicated final concentration within individual wells of the chamber slide and cells imaged while maintaining 37° C., 5% CO2 in the incubation chamber. Images were acquired in 6 different locations across a minimum of 2 independent experiments. […] An unpaired t test was performed to determine the significance of the means before and after treatment.
# INCL lymphoblasts = type: cell-based, human
# Experimental: INCL lymphoblasts were plated at 100,000 cells/well in 80 μL of OptiMEM in a 96 well plate. Stock organic solutions were prepared as before and then diluted to 5× stock solutions in OptiMEM. 20 μL of the OptiMEM stocks was then added to the appropriate wells to achieve the indicated final concentration of the compound in 100 μL of cell suspension. After a 24 h incubation, 10 μL of WST-1 reagent (Sigma-Aldrich) was added to each well and cells incubated for 1 h at 37° C., 5% CO2. Absorbance measurements were taken using a Satire II plate reader (Tecan) at 440 nm using 690 nm as a reference. The background absorbance of the WST-1 reagent in media was subtracted and cell viability was reported as a percentage of the viability of the non-treated control cells. All conditions were tested in 4 replicate wells and values reported as means±SD.
# GAP43 = target: T2, GAP43 (Homo sapiens, UniProt P17677); experiment: Acyl resin-assisted capture detection of GAP43 palmitoylation in INCL lymphoblasts; type: cell-based; details: 0.05 μmol/10^7 cells, 24 h
# T2 construct: Western blot detection of endogenous GAP43 in acyl resin-assisted capture fractions; host or cells: INCL human lymphoblasts
# T2 sequence (P17677 1-238): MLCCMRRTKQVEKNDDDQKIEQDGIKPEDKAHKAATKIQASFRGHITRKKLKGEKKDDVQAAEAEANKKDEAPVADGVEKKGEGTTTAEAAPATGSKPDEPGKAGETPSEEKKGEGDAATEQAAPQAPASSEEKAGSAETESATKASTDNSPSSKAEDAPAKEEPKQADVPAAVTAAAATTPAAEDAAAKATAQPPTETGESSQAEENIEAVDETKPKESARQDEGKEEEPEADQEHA
# Experimental: INCL Lymphoblasts were adjusted to 1,000,000 cells/mL in 20 mL of OptiMem Media. Stock solutions of compounds were prepared in DMSO as before and diluted to the indicated final concentration in the cell suspension. […] Cells were pelleted by centrifugation at 1,000 rcf for 5 min and the pellet processed using a CAPTUREome S-Palmitoylated Protein Kit (Badrilla, UK) according to the manufacturer's protocol. Samples were resolved by electrophoresis using 4-20% SDS-polyacrylamide gels (Bio-Rad) under denaturing and reducing conditions. Proteins were then electrotransferred to a PVDF membrane (Bio-Rad). The membrane was blocked with 3% BSA and then subjected to immunoblot analysis using GAP-43 (B-5) Antibody (sc-17790) (Santa Cruz Biotechnology) and secondary antibody goat anti-mouse IgG HRP (ThermoFisher). Chemiluminescent detection was performed by using SuperSignal West Pico PLUS chemiluminescent substrate (ThermoFisher) according to the manufacturer's instructions.
# Assays were performed in 3 biological replicates. Each replicate involved the analysis of 4 to 5 conditions side-by-side. Western blots were analyzed using ImageJ^1. The intensity of the protein band in each cleaved bound fraction (palmitoylated protein fraction) was normalized to the intensity of the corresponding input fraction (total protein fraction). The values within individual S 4 replicates were normalized to the control or vehicle condition and reported as means±SD. An unpaired t test was performed to determine the significance between means.
# T1 sequence (P01112 1-186 limits assumed): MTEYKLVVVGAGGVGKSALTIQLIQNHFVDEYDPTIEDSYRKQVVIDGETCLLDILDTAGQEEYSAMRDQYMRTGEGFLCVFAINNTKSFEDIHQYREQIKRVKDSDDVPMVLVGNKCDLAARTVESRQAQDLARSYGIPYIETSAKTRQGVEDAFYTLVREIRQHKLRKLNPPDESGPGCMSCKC
smiles,measurement,setting,value
"CCCCCCCCNC(=O)[C@@H](N)CS [compound 1, H2N-L-Cys-Oct]",detection of N-acylated AMD product 4 in lipid extract (LC MS/MS),HeLa cells,"detected the expected AMD product, 4"
same,"change in plasma membrane protein localization, statistical analysis of several hundred cells","EGFP-HRas; EGFP-HRas transfected HeLa cells, before vs after treatment",significant change in plasma membrane protein localization
same,EGFP-HRas localization at the plasma membrane (fluorescence),"EGFP-HRas; HeLa cells, 1.25 μmol/10^7 cells, 20 min",EGFP-HRas localization at the plasma membrane decreased
same,doses that did not decrease cell viability compared to the nontreated control,INCL lymphoblasts,up to 0.08 μmol/10^7 cells
same,level of GAP43 palmitoylation,GAP43,significantly reduced
